Measured values reported in US20110257130A1 (priority 2008, published 2011).
Like-named read-outs stand apart in the source and are kept apart here.

Tests used:
[1] = biological target: Angiotensin Converting Enzyme (ACE) (UniProt P12822); assay: fluorimetric ACE assay with HHL substrate, 96-well format; assay type: biochemical; settings: for reduction of ACE activity (formation of L-histidyl-L-leucine): compound incubated with enzyme at 37° C. for 30 min
Procedure: To determine whether the compounds of the presently-disclosed subject matter were capable of reducing the enzymatic activity of Angiotensin Converting Enzyme (ACE), an ACE assay was carried out according to the standard protocols (see, e.g., Schwager, et al. A high-throughput fluorimetric assay for angiotensin I-converting enzyme, Nature Protocols, 2006; 1 (4): 1961-1964, which is incorporated herein by this reference). The ACE assay involved a fluorimetric procedure in which the substrate hippury-L-histidyl-L-leucine (HHL) was used, and the fluorescent adduct of the enzyme-catalyzed product L-histidyl-L-leucine was quantified fluorimetrically. […] The results from the assay were analyzed in a 96-well plate reader with each concentration measured in triplicate.
Briefly, in a total of 250 μL assay volume, 10 μL of ACE enzyme (Sigma Chemical Co., St. Louis, Mo.) and 10 μL of either 1-(6,8-dimercaptooctanyl)pyrrolidine-2-carboxylic acid or prolyl lipoic acid (Formula (III) was added. Both compounds were incubated with enzyme at 37° C. for 30 min. The ACE substrate HHL, 6 μL in buffer, was then added to each well followed by incubation at 45° C. for 30 min. 170 μL of 0.3M sodium hydroxide solution was added to above solution followed by the addition of phalaldehyde solution in methanol. The mixture was then allowed to shake for 5 min. This step was followed by the addition of 32 μL of 2N hydrochloric acid to each well and subsequent measurement of the fluorescence at an excitation wavelength of 360 nm and an emission wavelength of 480 nm. Three controls were used to compare the readings, with the controls including wells without the enzyme, wells without the compounds, and wells without the HHL enzymatic substrate.
To further examine the IC50 value in relation to the absolute amounts of thiol groups of the 1-(6,8-dimercaptooctanyl)pyrrolidine-2-carboxylic acid compound, however, the amount of thiol groups in the reaction mixtures was also measured according to Ellman's method (see, e.g. Simpson R J, Estimation of free thiols and disulfide bonds using Ellman's reagent, CSHL Press, Cold Spring Harbor, N.Y., 2003; and, Ellman G L, Tissue sulfhydral groups, Arch. Biochem. Biophys., 1959; 82: 70-77, each of which are incorporated herein by this reference). […] The TNB^2− can then be quantified in a spectrophotometer by measuring the absorbance of visible light at 412 nm, using an extinction coefficient of 14,150M^−1 cm^−1 for dilute buffer solutions, and a coefficient of 13,700 M^−1 cm^−1 for high salt concentrations, such as 6 M guanidinium hydrochloride or 8 M urea. […] The absorbance was measured at 412 nm. […]

[2] = system: pre-constricted rat aortic segments; assay: vasodilation of phenylephrine pre-constricted aortic rings in myograph; design: species or system male Sprague-Dawley Rats; settings: for relaxation of pre-constricted rat aortic segments: phenylephrine 0.1 μM pre-constriction, after 4-hour incubation with 44 mM glucose
Procedure: To determine the effect of lipoic acid and prolyl lipoic acid (Formula (III)) on vasodilation, aortas from male Sprague-Dawley Rats (n=2) were utilized. Briefly, each animal was first sacrificed and their aortas were removed. The aortas were then incubated in phosphate-buffered-saline (PBS) containing 44 mM glucose for 4 hours. Eight 5-mm ring segments of thoracic aorta were then suspended in a myograph chamber filled with a Krebs buffer of the following composition: NaCl, 118.3; KCl, 4.69; CaCl2, 1.87; MgSO4, 1.20; K2HPO4, 1.03; NaHCO3 25.0; and glucose 11.1; all values in mM, pH 7.40. During the following hour, the resting tension was increased to optimize constrictions due to exposure to KCl. The vessel segments were then pre-constricted with phenylephrine (PE; 0.1 μM) and were subjected to prolyl lipoic acid (Formula (III)) or lipoic acid. Vasodilation in the rat aortic rings in response to L-prolyl lipoic acid (1×10^−4 M) or lipoic acid (1×10^−4 M) (both dissolved in aqueous media) was then measured after a 4-hour incubation with glucose (44 mM). Endothelial cell function in the aortic rings was also measured by pre-constricting the aortic rings to the EC50 of phenylephrine and then subjecting the rings to a maximum acetylcholine dose (10^−5M).

[3] = system: spontaneously hypertensive stroke prone rats (SHRSP); assay: histology of organ sections (H&E wall thickness, CD68 staining) after 6 weeks of treatment; assay type: in vivo, rat; settings: 50 mg/kg daily IP
Procedure: (§1) To further examine the effects of prolyl lipoic acid (Formula (III)) on hypertension, the effect of prolyl lipoic acid was examined in spontaneously hypertensive rats over a longer time period. Briefly, spontaneously hypertensive rats (SHRSP rats, 10 weeks of age, n=10/group) were randomized to placebo or prolyl lipoic acid (50 mg/kg) groups for a duration of 6 weeks. The animals were housed 2 to a cage and were given Harlan-Teklad Laboratory Rodent Diet ad libitum (Harlan Laboratories, Indianapolis, Ind.). Prolyl lipoic acid or saline placebo was administered to the rats by daily intraperitoneal (IP) dosing.
Additionally, four to eight sections of each organ were stained with CD68 or H&E for 10 animals (5 in each group) and images were obtained at 200× by bright-field microscopy. MetaMorph software was used for automated thresholding. The percentage of thresholded area of the picture was recorded and reported. Additionally, about 12 organ sections per rat were prepared for 10 of the rats (5 in each group). These sections were 5 microns in size and were stained with hematoxylin and eosin (H&E). Images were obtained at 40× (using bright-field microscopy and analyzed using MetaMorph software. For each image, the external elastic lamina of the aorta was traced using a drawing tool, and this area was logged. The luminal area was also measured. Thus, the tunica intima and tunica media were included in these measurements, not tunica adventitia. The wall thickness was calculated by subtracting the luminal area from the wall area.

[4] = system: spontaneously hypertensive stroke prone rats (SHRSP); assay: blood pressure by intra-arterial catheter / radio-telemetry in hypertension model; assay type: in vivo, rat
Excerpt: To determine the effect of prolyl lipoic acid (Formula (III)) in an animal model of hypertension, spontaneously hypertensive stroke prone rats (SHRSP) were first procured from Charles River at the age of 6 weeks (Charles River Laboratories, Wilmington, Mass., U.S.A.). After a period of acclimatization for 4 weeks, the rats were then implanted with intra-arterial catheters in the abdominal aorta along with a radio-telemetry monitoring device to assess systolic blood pressure. Briefly, to implant the radio-telemetry devices, the operative procedure involved anesthetizing the animals with 375 mg/kg of 2,2,2-tribromoethanol (Sigma Chemical Co., St. Louis, Mo.). An incision was then made in the abdomen and the aorta was exposed. A 0.4 mm catheter attached to a combination pressure transducer, transmitter, and battery, all encapsulated in a implantable micro-miniature electronic monitor (PA-C20, Data Sciences International, St. Paul, Minn.), was then inserted.
Following implantation of the radio-telemetry devices, the animals were allowed to recover and the aortic pressure of each animal was monitored continuously. Once the animals sufficiently recovered, the rats then received 50 mg/kg of prolyl lipoic acid, dissolved in aqueous media, in a single dose. The blood pressures were then measured over a period of 12 hours and compared to the previous 12 hour period. […]
During the 6 week experimental period, blood pressure measurements were performed in a sub-group of 4 animals randomized to prolyl lipoic acid by intra-arterial catheter placement in the infra-renal aorta and acute administration of the prolyl lipoic acid prior to administration of drug. Additionally, four SHRSP rats (12 weeks old) were implanted with radio-telemetry transmitters (DataSciences Inc., St. Paul, Minn.) into their abdominal aortas and blood pressure was measured using the DSI system (DataSciences Inc.). In these later experiments, blood pressure was recorded continuously over 24-hour periods and reported as the change in blood pressure in the 12-hour period following the administration of the agent.

[5] = system: inflammatory genes (ICAM1, IL-6, IL-1β, MCP1, TGF-β1, VCAM1, TNF-α); assay: inflammatory gene expression (mRNA transcript levels) in tissues after 6 weeks of treatment; assay type: in vivo, rat; settings: 50 mg/kg daily IP
Procedure: as §1
Furthermore, inflammatory gene expression was assessed in the aorta, heart, brain and kidney by probing for mRNA transcript levels of the various inflammatory genes. Aortic and cardiac collagen synthesis was also assessed by Picrosirius Red staining and Massom-Trichrome staining and quantified by an automated thresholding program.

[6] = system: spontaneously hypertensive stroke prone rats (SHRSP); assay: endothelial function by myography of aortic segments after 6 weeks of treatment; assay type: in vivo, rat; settings: 50 mg/kg daily IP, pre-contraction 0.3 μM phenylephrine
Procedure: as §1
Following the completion of the six week period, the animals were euthanized at week 17 by lethal pentobarbital injection and tissues were removed from the animal. Upon removal of the tissues, endothelial function was assessed. It is known that endothelial function can refer to the unimpaired production of or availability of NO and/or a balance in the relative contribution of endothelium-derived relaxing and contracting factors (such as ET-1, angiotensin, and oxidants). […] As such, once the tissues were removed from the animals, endothelial cell function was assessed in the experimental groups by myography as percent-relaxation to acetylcholine or sodium nitroprusside subsequent to pre-contraction with 0.3 μM phenylephrine.

Angiotensin Converting Enzyme (ACE), sequence (P12822 whole entry): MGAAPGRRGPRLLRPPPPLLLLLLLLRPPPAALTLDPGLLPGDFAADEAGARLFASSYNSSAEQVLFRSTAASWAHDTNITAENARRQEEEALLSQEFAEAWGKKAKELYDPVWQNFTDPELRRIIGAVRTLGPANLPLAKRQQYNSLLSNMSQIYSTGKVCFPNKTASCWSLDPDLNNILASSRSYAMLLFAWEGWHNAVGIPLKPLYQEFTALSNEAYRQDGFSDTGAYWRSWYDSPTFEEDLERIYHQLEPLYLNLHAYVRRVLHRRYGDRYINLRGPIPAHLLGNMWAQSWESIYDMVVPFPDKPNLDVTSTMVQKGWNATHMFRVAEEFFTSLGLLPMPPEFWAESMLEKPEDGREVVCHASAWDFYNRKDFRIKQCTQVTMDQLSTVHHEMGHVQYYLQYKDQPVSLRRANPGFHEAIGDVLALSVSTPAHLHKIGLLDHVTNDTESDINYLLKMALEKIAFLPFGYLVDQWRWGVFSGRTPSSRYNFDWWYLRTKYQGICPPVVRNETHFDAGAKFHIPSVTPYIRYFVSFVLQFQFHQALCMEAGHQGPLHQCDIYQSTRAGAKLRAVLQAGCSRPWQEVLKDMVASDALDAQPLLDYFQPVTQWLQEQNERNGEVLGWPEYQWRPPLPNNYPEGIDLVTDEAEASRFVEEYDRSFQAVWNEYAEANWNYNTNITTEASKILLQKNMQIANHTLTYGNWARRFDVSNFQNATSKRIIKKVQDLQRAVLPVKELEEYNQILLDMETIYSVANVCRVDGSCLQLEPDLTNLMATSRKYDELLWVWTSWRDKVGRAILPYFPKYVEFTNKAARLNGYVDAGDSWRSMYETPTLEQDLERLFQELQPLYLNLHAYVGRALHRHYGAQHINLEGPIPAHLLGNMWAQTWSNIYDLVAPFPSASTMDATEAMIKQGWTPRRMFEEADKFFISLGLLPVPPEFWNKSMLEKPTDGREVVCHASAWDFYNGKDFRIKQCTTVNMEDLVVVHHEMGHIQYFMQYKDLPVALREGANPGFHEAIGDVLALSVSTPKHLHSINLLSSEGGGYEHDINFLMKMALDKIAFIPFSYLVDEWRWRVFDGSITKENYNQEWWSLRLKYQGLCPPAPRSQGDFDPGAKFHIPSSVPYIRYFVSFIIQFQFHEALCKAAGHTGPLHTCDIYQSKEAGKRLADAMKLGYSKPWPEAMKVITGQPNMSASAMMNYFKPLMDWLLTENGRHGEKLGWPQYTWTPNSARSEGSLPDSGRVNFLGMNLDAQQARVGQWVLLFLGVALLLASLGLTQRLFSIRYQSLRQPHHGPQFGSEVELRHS

## O=C(O)C1CCCN1C(=O)CCCCC1CCSS1 [prolyl lipoic acid, L-prolyl lipoic acid]
[1]
  reduction of ACE activity (formation of L-histidyl-L-leucine): effectively reduce ACE activity
[2]; 1×10^−4 M
  relaxation of pre-constricted rat aortic segments: relaxed pre-constricted rat aortic segments
[2]; 1×10^−4 M, same aortic ring test (FIG. 15)
  relaxation as compared to lipoic acid: increase in relaxation as compared to lipoic acid
[2]; rings pre-constricted to EC50 of phenylephrine, acetylcholine 10^−5M
  endothelial function in aortic rings (vasodilation following acetylcholine): improve endothelial function
[3]
  CD68 expression in the brain: without affecting CD68 expression
  CD68 expression in the kidneys: without affecting CD68 expression
  CD68 expression in the myocardium: without affecting CD68 expression
  inflammatory cell recruitment to the heart: favorable effects
  inflammatory cell recruitment to the kidney: favorable effects
[3]; H&E sections
  aortic medial hypertrophy: effects in reducing aortic medial hypertrophy
[4]; 50 mg/kg single dose, 12 hours after versus previous 12 hour period
  blood pressure after a single dose: significantly reduced blood pressure
[4]; 50 mg/kg versus captopril 100 mg/kg (FIG. 20)
  effects on blood pressure relative to captopril: comparable to the angiotensin converting enzyme inhibitor, captopril
[4]; 50 mg/kg, SHRSP rats, FIGS. 18-19
  blood pressure, acute administration: acutely lowered blood pressure
[5]; aorta
  inflammatory gene expression in aorta: markedly reduced inflammatory gene expression
[5]; brain
  ICAM1 expression in brain: some reductions in expression
  IL-6 expression in brain: some reductions in expression
[5]; brain, compared with other tissues
  reduction in inflammatory gene expression in brain: not as pronounced
[5]; heart
  inflammatory gene expression in heart: markedly reduced inflammatory gene expression
[5]; kidney
  inflammatory gene expression in kidney: markedly reduced inflammatory gene expression
[6]
  endothelial function (relaxation to acetylcholine or sodium nitroprusside): improved endothelial function

## O=C(O)C1CCCN1C(=O)CCCCC(S)CCS (stereo not drawn)
[1]
  reduction of ACE activity (formation of L-histidyl-L-leucine): effectively reduce ACE activity
[1]; corrected for thiol content by Ellman's method, read-out: IC50 value recalculated after thiol quantification
  IC50: 6.6 µM
[1]; from plot of fluorescence counts against concentration (FIG. 13), read-out: IC50 value, initially found
  IC50: ~29 µM

## O=C(O)CCCCC1CCSS1 (stereo not drawn) [lipoic acid, alpha lipoic acid, reference compound]
[2]; 1×10^−4 M
  relaxation of pre-constricted rat aortic segments: relaxed pre-constricted rat aortic segments
